The values below come from US11021457B2, “Class of isoindolone-imide ring-1,3-dione-2-ene compounds, composition and use thereof” (WIGEN BIOMEDICINE TECHNOLOGY (SHANGHAI) CO., LTD., priority 2017, dated 2021).

Data set [1] has as its system human multiple myeloma RPMI8226 cell xenograft tumor. The experiment in a line: In-vivo anti-tumor efficacy in multiple myeloma xenograft tumor model (tumor volume, T/C, TGI). More on the design: species or system mouse. To be noted: for Average volume (mm3) Start of the treatment Day 1 / Average volume (mm3) End of the treatment Day 21 / T/C %: QD × 21; for Average volume (mm3) End of the treatment Day 21 / T/C %: Day 21. The procedure:
The in-vivo anti-tumor efficacy of the compound 1, lenalidomide, dexamethasone and a combination of the compound 1 or lenalidomide with dexamethasone in human multiple myeloma RPMI8226 cell xenograft tumor model was evaluated.
(§1) The test animals were female CB17 SCID mice. Human RPMI8226 cells were cultured in RPMI1640 medium containing 10% heat-inactivated fetal bovine serum and 1% penicillin-streptomycin double antibody in an incubator with 5% CO2 at 37° C. When the cells were in an exponential growth phase, the cells were harvested, counted, and subcutaneously inoculated into the right dorsal portion of each mouse. The mice were grouped and administered when the average tumor volume reached about 150 mm^3. Grouping method: the animals were weighed and measured for the tumor volume before administration, and grouped by block design according to the tumor volume.
(§2) Whether the tumor growth could be inhibited, delayed or cured was investigated. The diameter of the tumor was measured by a vernier caliper. The tumor volume was calculated by a formula: V=0.5×a×b^2, in which a and b respectively represent the long diameter and short diameter of the tumor. The anti-tumor effect T/C (%) of the compound was evaluated by a formula: T/C %=TRTV/CRTV×100% (TRTV: RTV of the treatment group; CRTV: RTV of the negative control group). The relative tumor volume RTV was calculated by a formula: RTV=Vt/V0, where V0 is the measured tumor volume at the time of grouping and administration (i.e. day 0), and Vt is the tumor volume at each measurement. T/C (%) reflects the inhibition rate on tumor growth. […] The weight of the mice bearing tumor in each group was recorded and analyzed, as shown in FIGS. 1 and 2 and Table 14, and the effect of the compound on the tumor volume of the mice bearing tumor is shown in FIGS. 3 and 4 and Table 15.

A further data set concerns RPMI-8226. The experiment in a line: Inhibition of tumor cell proliferation, CellTiter-Glo, RPMI-8226. The format is cell-based. To be noted: compound concentration 50 μM, 72 hours. Put shortly:
(§3)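 Cells seeded at 2000-10000 per well, treated immediately (suspension) or after adherence (adherent) and cultured at 37° C, 5% CO2. Viability read by CellTiter-Glo at 72 h as blank-corrected survival rate vs control. Scored at 50 μM compound: survival 60-<90% +, >30-60% ++, ≤30% +++.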

In another data set the test system is A549. The experiment in a line: Inhibition of tumor cell proliferation, CellTiter-Glo, A549. The format is cell-based. To be noted: compound concentration 50 μM, 72 hours. Put shortly: as §3
(In general: ATP-based viability assays read luminescence as a measure of living cells.)

Another data set has as its system K562. The experiment in a line: Inhibition of tumor cell proliferation, CellTiter-Glo, K562. The format is cell-based. To be noted: compound concentration 50 μM, 72 hours. Put shortly:
as §3

The next data set concerns SU-DHL6. The experiment in a line: Inhibition of tumor cell proliferation, CellTiter-Glo, SU-DHL6. The format is cell-based. To be noted: compound concentration 50 μM, 72 hours. Put shortly: as §3
In another data set the target is LC3B (Homo sapiens (Human), UniProt Q9GZQ8). The experiment in a line: Fluorescence polarization experiment targeting LC3B (GST-LC3B with FITC-labeled peptide). To be noted: GST-LC3B 180 nM, FITC-labeled peptide 18 nM, 25° C.
The next data set deals with MDA-MB-453. The experiment in a line: Inhibition of tumor cell proliferation, CellTiter-Glo, MDA-MB-453. The format is cell-based. To be noted: compound concentration 50 μM, 72 hours. Put shortly:
as §3

Another data set has as its system BxPC-3. The experiment in a line: Inhibition of tumor cell proliferation, CellTiter-Glo, BxPC-3. The format is cell-based. To be noted: compound concentration 50 μM, 72 hours. Put shortly: as §3
Data set [2] in a line: Body weight of tumor-bearing mice in the in-vivo pharmacodynamic test. More on the design: species or system mouse. To be noted: for Average body weight (g) Start of the treatment Day 1 / Average body weight (g) End of the treatment Day 21 / Average RCBW (%)/end of the treatment Day 21: QD × 21; for Average body weight (g) Start of the treatment Day 1 / Average body weight (g) End of the treatment Day 21: x ± SEM; for Average RCBW (%)/end of the treatment Day 21: Day 21 relative to Day 1. The procedure: as §1, §2

[3] abbreviates: Compound 1 53 mg/kg + Dexamethasone 1 mg/kg.
The mark [4] stands for this setting: Compound 1 53 mg/kg p.o + Dexamethasone 1 mg/kg i.p.
[5] abbreviates: Lenalidomide 30 mg/kg + Dexamethasone 1 mg/kg.
Setting [6] is: Lenalidomide 30 mg/kg p.o, RPMI8226 tumor-bearing mice.
The mark [7] stands for this setting: Lenalidomide 30 mg/kg p.o + Dexamethasone 1 mg/kg i.p.
The mark [8] stands for this setting: Lenalidomide 30 mg/kg p.o., RPMI8226 tumor-bearing mice.

What is called IC50 is the concentration that gives 50% inhibition. Low readings indicate greater potency, high ones weaker potency.

Turning to `O=C1CCC(N2Cc3c(NC=C4C(=O)CC(c5ccccc5)CC4=O)cccc3C2=O)C(=O)N1` (stereo not drawn) [Compound 1], the Tumor inhibition effect result is recorded as “comparable to that of lenalidomide” in data set [1] (17.7 mg/kg, versus lenalidomide 30 mg/kg) and “stronger tumor inhibition effect than lenalidomide” in [1] (in combination with dexamethasone). Moreover, in data set [1] (53 mg/kg (same molar dose as lenalidomide)), the Anti-tumor effect result is reported as “significantly higher than lenalidomide”. For the same compound, the “Average volume (mm3) Start of the treatment Day 1” value in data set [1] (Compound 1 17.7 mg/kg p.o) worked out at 141.27 ± 14.61 mm3; in data set [1] (setting [3]) it was 141.54 ± 14.27 mm3; in data set [1] (Compound 1 53 mg/kg p.o), 142.38 ± 15.41 mm3. The “Average volume (mm3) End of the treatment Day 21” value in data set [1] (Compound 1 17.7 mg/kg p.o) is reported as 881.71 ± 175.49 mm3; in data set [1] (setting [3]) it was 179.24 ± 48.35 mm3; in [1] (Compound 1 53 mg/kg p.o) it was 674.46 ± 137.82 mm3. In addition, the T/C % in data set [1] (Compound 1 17.7 mg/kg p.o) worked out at 47.20%; in data set [1] (setting [3]), 9.60%; in [1] (Compound 1 53 mg/kg p.o), 36.11%. In the data set on RPMI-8226, the “Inhibitory activity against proliferation (cell survival rate) RPMI-8226” value is “+++ (survival rate (%)≤30)”. For the same compound, in the data set on A549, the “Inhibitory activity against proliferation (cell survival rate) A549” value is “+++ (survival rate (%)≤30)”. For the same compound, the “Inhibitory activity against proliferation (cell survival rate) K562” value with K562 is on record as “+++ (survival rate (%)≤30)”. The “Inhibitory activity against proliferation (cell survival rate) SU-DHL6” value in the data set on SU-DHL6 was “+++ (survival rate (%)≤30)”. Also, at LC3B, the IC50 was in the range of 3 to 15 µM. Also, the “Inhibitory activity against proliferation (cell survival rate) MDA-MB-453” value in the data set on MDA-MB-453 was “++ (30<survival rate (%)≤60)”. The “Inhibitory activity against proliferation (cell survival rate) BxPC-3” value in the data set with BxPC-3 is “++ (30<survival rate (%)≤60)”. Further, the “Average body weight (g) Start of the treatment Day 1” value is reported as 21.60 ± 0.36 g in data set [2] (Compound 1 17.7 mg/kg p.o), 21.41 ± 0.32 g in data set [2] (setting [4]) and 21.15 ± 0.36 g in [2] (Compound 1 53 mg/kg p.o). Besides, the “Average body weight (g) End of the treatment Day 21” value turned out to be 22.49 ± 0.39 g in data set [2] (Compound 1 17.7 mg/kg p.o), 20.46 ± 0.31 g in [2] (setting [4]) and 22.25 ± 0.31 g in [2] (Compound 1 53 mg/kg p.o). The “Average RCBW (%)/end of the treatment Day 21” value in data set [2] (Compound 1 17.7 mg/kg p.o) was 4.13%; in data set [2] (setting [4]) it was −4.46%; in data set [2] (Compound 1 53 mg/kg p.o) it was 5.27%. Besides, the “Effect on body weight of tumor-bearing mice” value is reported as “weight loss” in data set [2] (in combination with dexamethasone, attributed to dexamethasone) and “does not affect the body weight” in data set [2] (throughout the administration period).

On to `Nc1cccc2c1CN(C1CCC(=O)NC1=O)C2=O` (stereo not drawn) [Lenalidomide, reference compound], for which the figures for the “Average volume (mm3) Start of the treatment Day 1” value in data set [1] (setting [5]) and in [1] (setting [6]) were 141.35 ± 15.02 mm3 and 140.44 ± 15.82 mm3, respectively. Moreover, the “Average volume (mm3) End of the treatment Day 21” value in data set [1] (setting [5]) is on record as 233.72 ± 47.47 mm3; in data set [1] (setting [6]), 927.82 ± 164.85 mm3. Besides, the T/C % is on record as 12.51% in data set [1] (setting [5]) and 49.67% in data set [1] (Lenalidomide 30 mg/kg p.o). The entries for the “Average body weight (g) Start of the treatment Day 1” value in data set [2] (setting [7]) and in data set [2] (setting [8]) were 21.23 ± 0.34 g and 21.02 ± 0.23 g, respectively. In addition, the entries for the “Average body weight (g) End of the treatment Day 21” value in data set [2] (setting [7]) and in data set [2] (setting [8]) were 20.08 ± 0.25 g and 21.90 ± 0.30 g, respectively. Further, the “Average RCBW (%)/end of the treatment Day 21” value is on record as −5.33% in data set [2] (setting [7]) and 4.18% in data set [2] (Lenalidomide 30 mg/kg p.o.).
